From patent US9169252B2 (BRISTOL-MYERS SQUIBB COMPANY, priority 2014, dated 2015)
Read-outs that look alike come from different tables or passages of the source.

What was measured:
IRAK4 = IRAK4 (Homo sapiens (Human), UniProt Q9NWZ3); assay: IRAK4 Inhibition Assay; format: biochemical; conditions: ATP 500 μM, read-out: IRAK4 IC50
Procedure: The assays were performed in U-bottom 384-well plates. […] The reaction was initiated by the combination of IRAK4 with substrates and test compounds. The reaction mixture was incubated at room temperature for 60 min. and terminated by adding 45 μL of 35 mM EDTA to each sample. The reaction mixture was analyzed on the Caliper LABCHIP® 3000 (Caliper, Hopkinton, Mass.) by electrophoretic separation of the fluorescent substrate and phosphorylated product.

[1] = system: TLR2 induced IL-6 in peripheral blood mononuclear cells (PBMCs); assay: PBMC TLR2 Induced IL-6 Assay; format: cell-based, human; conditions: IL-6 by ELISA; for IC50: read-out: Cell IC50; for EC50: read-out: Cell EC50
Procedure: PBMC TLR2 Induced IL-6 Assay
Peripheral blood mononuclear cells (PBMCs) were isolated from human blood containing the anti-coagulant EDTA (2.5 mM) by centrifugation over a FICOLL® gradient. PBMCs (250000 cells/well) were cultured in assay media (RPMI with 10% heat inactivated FCS) with compounds for 30 minutes at 37° C. in a 5% CO2 incubator. Following pretreatment with compounds, cells were stimulated for 5 hours with 10 µg/ml lipoteichoic acid (Invivogen, San Diego, Calif.), a TLR2 agonist. At the end of the culture, plates were centrifuged at 1800 rpm for 10 minutes to pellet the cells.

[2] = PBMC TLR2 Induced IL-6 Assay, lipoteichoic acid stimulation
[3] = Homo sapiens, PBMC, human PBMCs, lipoteichoic acid stimulated
[4] = Homo sapiens, PBMC, PBMC TLR2 Induced IL-6 Assay, lipoteichoic acid stimulation

IRAK4, sequence (Q9NWZ3 whole entry, species assumed): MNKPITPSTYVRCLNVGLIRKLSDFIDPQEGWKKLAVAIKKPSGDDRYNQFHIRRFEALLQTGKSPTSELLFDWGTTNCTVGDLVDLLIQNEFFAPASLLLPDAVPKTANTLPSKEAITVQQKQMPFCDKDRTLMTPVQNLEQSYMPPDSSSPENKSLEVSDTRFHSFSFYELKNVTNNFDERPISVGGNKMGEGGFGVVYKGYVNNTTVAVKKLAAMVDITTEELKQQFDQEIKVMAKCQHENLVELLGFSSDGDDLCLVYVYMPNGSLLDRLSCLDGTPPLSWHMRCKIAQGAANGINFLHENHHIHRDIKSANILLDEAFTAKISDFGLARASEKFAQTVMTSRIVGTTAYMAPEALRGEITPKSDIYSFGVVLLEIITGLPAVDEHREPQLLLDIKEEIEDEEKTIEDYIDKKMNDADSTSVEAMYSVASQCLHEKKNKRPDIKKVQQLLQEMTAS

SMILES | IC50 (IRAK4; IRAK4 Inhibition Assay) [nM] | IC50 (IRAK4; IRAK4 0.6 nM) [nM] | EC50 [1, 4] [nM] | IC50 [1, 4] [nM] | further results
CC(C)Nc1cc(-n2ncc3cc(C#N)cnc32)ncc1C(=O)NCCC(C)NS(C)(=O)=O (centres unmarked) [Example 265] | 2.4 | – | – | – | IC50 [1, 2]: 241 nM
CC(C)(O)[C@H](F)CNC(=O)c1cnc(-n2ncc3cc(C#N)cnc32)cc1NCC(F)F [Example 574] | – | 15.3 | – | – | IC50 [1, 3]: 258 nM
CC(C)(O)[C@H](F)CNC(=O)c1cnc(-n2ccc3cc(C#N)cnc32)cc1NC1CCC1 [Example 6, (R)-6-(5-cyano-1H-pyrrolo[2,3-b]pyridin-1-yl)-4-(cyclobutylamino)-N-(2-fluoro-3-hydroxy-3-methylbutyl) nicotinamide] | 1 | – | 243 | 243 | –
CCCCNC(=O)c1cnc(-n2ncc3cc(C#N)c(N)nc32)cc1NC1COC1 [Example 559] | – | 5.3 | – | – | IC50 [1, 3]: 18 nM
CC(C)Nc1cc(-n2ncc3cc(C#N)cnc32)ncc1C(=O)Nc1cc2cc[nH]c2cn1 [Example 223] | 4 | – | – | 178 | –
CC(C)(O)[C@H](F)CNC(=O)c1cnc(-n2ccc3cc(C#N)cnc32)cc1NC1CC1 [Example 2, (R)-6-(5-cyano-1H-pyrrolo[2,3-b]pyridin-1-yl)-4-(cyclopropylamino)-N-(2-fluoro-3-hydroxy-3-methylbutyl)nicotinamide] | 1.6 | – | 8 | 26 | –
CC(C)Nc1cc(-n2ncc3cc(C#N)cnc32)ncc1C(=O)NCCC1(O)CCNC1 (centres unmarked) [Example 255] | 7.5 | – | 329 | – | –
CC(C)(O)[C@H](F)CNC(=O)c1cnc(-n2ncc3cc(C#N)cnc32)cc1N[C@H]1CC[C@H](NC(=O)C(F)F)CC1 [Example 633] | – | 3.3 | – | – | IC50 [1, 3]: 257 nM
CC(C)(O)[C@H](F)CNC(=O)c1cnc(N2CCc3cc(C#N)cnc32)cc1NC1COC1 [Example 549] | – | 16.8 | – | – | EC50 [1, 3]: 413 nM; IC50 [1, 3]: 757 nM
CCCCNC(=O)c1cnc(-n2ncc3cc(C#N)cnc32)cc1N[C@@H](C)CO [Example 319] | 6.5 | – | – | 191 | –
CC(O)CCNC(=O)c1cnc(-n2ncc3cc(C#N)cnc32)cc1NC(C)C (centres unmarked) [Example 238] | 8.1 | – | 357 | – | IC50 [1, 2]: 1810 nM
CC(C)(O)[C@H](F)CNC(=O)c1cnc(-n2ncc3cc(C#N)cnc32)cc1NC1CN(c2ncc(Cl)cn2)C1 [Example 541] | – | 14.4 | – | – | IC50 [1, 3]: 149 nM
Cn1cc(Nc2cc(-n3ncc4cc(Cl)cnc43)ncc2C(=O)NC[C@@H](F)C(C)(C)O)cn1 [Example 398] | – | 4.9 | – | – | IC50 [1, 3]: 277 nM
CC(C)(O)[C@H](F)CNC(=O)c1cnc(-n2ncc3cc(Cl)cnc32)cc1Nc1cnn(C2CCOCC2)c1 [Example 352] | 6.5 | – | – | 170 | –
CC(C)(O)[C@H](F)CNC(=O)c1cnc(-n2ccc3cc(C#N)cnc32)cc1Nc1cccc(CO)c1 [Example 71, (R)-6-(5-cyano-1H-pyrrolo[2,3-b]pyridin-1-yl)-N-(2-fluoro-3-hydroxy-3-methylbutyl)-4-((3-(hydroxymethyl)phenyl)amino)nicotinamide] | 1.5 | – | 28 | – | –
CC(C)(O)[C@H](F)CNC(=O)c1cnc(-n2ccc3cc(C#N)cnc32)cc1N[C@@H]1CCOC1 [Example 440] | – | 1.9 | – | – | EC50 [1, 3]: 72 nM
CC(C)Nc1cc(-n2ncc3cc(C#N)cnc32)ncc1C(=O)NCCc1c[nH]cn1 [Example 311] | 4.7 | – | – | 347 | –
CC(C)(O)[C@H](F)CNC(=O)c1cnc(-n2cnc3cc(C#N)cnc32)cc1NC1CCC1 [Example 338] | 4.5 | – | – | 147 | –
CC(C)Nc1cc(-n2ncc3cc(C#N)cnc32)ncc1C(=O)NC[C@H](F)C(C)(C)O [Example 196] | 10.4 | – | 304 | 328 | –
CC(=O)N1CC(Nc2cc(-n3ccc4cc(C#N)cnc43)ncc2C(=O)NC[C@@H](F)C(C)(C)O)C1 [Example 468] | – | 5.8 | – | – | EC50 [1, 3]: 128 nM; IC50 [1, 3]: 1010 nM
CC(C)Nc1cc(-n2ccc3cc(C#N)cnc32)ncc1C(=O)N[C@H]1CC[C@H](C(=O)NC(C)C)CC1 [Example 90, 6-(5-cyano-1H-pyrrolo[2,3-b]pyridin-1-yl)-4-(isopropylamino)-N-((trans)-4-(isopropylcarbamoyl)cyclohexyl) nicotinamide] | 1.9 | – | 41 | – | –

SMILES | IC50 (IRAK4; IRAK4 Inhibition Assay) [nM] | IC50 (IRAK4; IRAK4 0.6 nM) [nM] | EC50 [1, 4] [nM] | IC50 [1, 4] [nM] | further results
CC(C)(O)[C@H](F)CNC(=O)c1cnc(-n2ccc3cc(Cl)cnc32)cc1NC1CCC1 [Example 31, (R)-6-(5-chloro-1H-pyrrolo[2,3-b]pyridin-1-yl)-4-(cyclobutylamino)-N-(2-fluoro-3-hydroxy-3-methylbutyl)nicotinamide] | 3.4 | – | 367 | 1080 | –
CC(C)(O)[C@H](F)CNC(=O)c1cnc(-n2cnc3cc(Cl)cnc32)cc1Nc1cnn(CC(F)(F)F)c1 [Example 360] | 1.5 | – | – | 376 | –
CC(C)CCC(=O)NCc1cnc2c(ccn2-c2cc(NC(C)C)c(C(=O)NC[C@@H](F)C(C)(C)O)cn2)c1 [Example 512] | – | 3.5 | – | – | IC50 [1, 3]: 541 nM
CC(C)Nc1cc(-n2ccc3cc(C#N)cnc32)ncc1C(=O)NC1CCc2nc(N)sc2C1 (centres unmarked) [Example 73, N-(2-amino-4,5,6,7-tetrahydrobenzo[d]thiazol-6-yl)-6-(5-cyano-1H-pyrrolo[2,3-b]pyridin-1-yl)-4-(isopropylamino)nicotinamide] | 13.1 | – | 189 | – | –
CC(C)(O)[C@H](F)CNC(=O)c1cnc(-n2ccc3cc(C#N)cnc32)cc1NC1CCC(F)C1 (single isomer, unassigned) [Example 110] | 1.3 | – | – | – | EC50 [1, 2]: 47 nM
CC(C)Nc1cc(-n2ccc3cc(CNC(=O)CC4CCCC4)cnc32)ncc1C(=O)NC[C@@H](F)C(C)(C)O [Example 504] | – | 4.3 | – | – | IC50 [1, 3]: 262 nM
CC(F)[C@H](C)Nc1cc(-n2ncc3cc(C#N)cnc32)ncc1C(=O)NC[C@@H](F)C(C)(C)O (single isomer, unassigned) [Example 203] | 3.9 | – | – | – | EC50 [1, 2]: 124 nM
CCCCNC(=O)c1cnc(-n2ncc3cc(C#N)cnc32)cc1NC(C)C [Example 199] | 6.3 | – | 281 | – | –
CC(C)Nc1cc(-n2ncc3cc(C#N)cnc32)ncc1C(=O)NC[C@@H](F)C(C)(C)OC(F)F [Example 314] | 13.7 | – | – | 420 | –
CC(C)(O)[C@H](F)CNC(=O)c1cnc(-n2ncc3cc(F)cnc32)cc1Nc1cnn(CC(F)F)c1 [Example 384] | 2.3 | – | – | 24 | –
CC(C)(O)[C@H](F)CNC(=O)c1cnc(-n2ccc3cc(C#N)cnc32)cc1Nc1cccc(S(N)(=O)=O)c1 [Example 50, (R)-6-(5-cyano-1H-pyrrolo[2,3-b]pyridin-1-yl)-N-(2-fluoro-3-hydroxy-3-methylbutyl)-4-((3-sulfamoylphenyl)amino)nicotinamide] | 1.9 | – | 58 | – | –
CC(C)(O)[C@H](F)CNC(=O)c1cnc(-n2ncc3cc(F)cnc32)cc1NC1CCC(F)C1 (single isomer, unassigned) [Example 618] | – | 5.8 | – | – | EC50 [1, 3]: 127 nM
CC(F)[C@H](C)Nc1cc(-n2ccc3cc(C#N)cnc32)ncc1C(=O)NC[C@@H](F)C(C)(C)O (stereo partly drawn) [Example 72, 6-(5-cyano-1H-pyrrolo[2,3-b]pyridin-1-yl)-N—((R)-2-fluoro-3-hydroxy-3-methylbutyl)-4-(((2S)-3-fluorobutan-2-yl)amino) nicotinamide] | 2 | – | 72 | – | –
CNC(=O)[C@H]1CC[C@H](NC(=O)c2cnc(-n3ncc4cc(C#N)c(N)nc43)cc2N[C@H]2CCCC[C@@H]2F)CC1 [Example 630] | – | 2.2 | – | – | IC50 [1, 3]: 30 nM
CC(C)(O)[C@H](F)CNC(=O)c1cnc(-n2ncc3cc(F)cnc32)cc1NC1CCC(F)C1 (some centres unmarked) [Example 621] | – | 4 | – | – | EC50 ([1]; human PBMCs, lipoteichoic acid stimulated): 139 nM
CC(C)(O)[C@H](F)CNC(=O)c1cnc(-n2ncc3cc(Cl)cnc32)cc1NC1COC1 [Example 551] | – | 12.6 | – | – | IC50 [1, 3]: 212 nM
CC(C)Nc1cc(-n2ncc3cc(C#N)cnc32)ncc1C(=O)NC[C@@H](F)C(C)(C)OP(=O)(O)O [Example 191, (R)-4-(6-(5-Cyano-1H-pyrazolo[3,4-b]pyridin-1-yl)-4-(isopropylamino)nicotinamido)-3-fluoro-2-methylbutan-2-yl dihydrogen phosphate] | 14.7 | – | 10000 | – | –
CC(C)Nc1cc(-n2cnc3cc(C#N)c(N)nc32)ncc1C(=O)NC[C@@H](F)C(C)(C)O [Example 341] | 1.9 | – | 161 | – | –
CC(C)(O)[C@H](F)CNC(=O)c1cnc(-n2ccc3cc(C#N)cnc32)cc1NCCC(F)(F)F [Example 425] | – | 1.8 | – | – | EC50 [1, 3]: 154 nM
CC(C)Nc1cc(-n2ncc3cc(C#N)cnc32)ncc1C(=O)NC[C@@H](F)C(C)C [Example 312] | 9.2 | – | – | 375 | –
